A short description of series [1]: Calcium available to human body (bioavailability) from Ca products. To be noted: consumption 1000 mg of product. An excerpt: Bioavailability of Calcium Lactate Gluconate: the effectiveness of the nutrient depends on its bioavailability, which means how well the human body absorbs and utilizes it for various functions occurring in the body. On an average, about 10 to 30% of the total calcium is only get absorbed from a mixed diet by healthy adults. Many different factors influence this level of availability, one being the type of salt providing calcium. […] Calcium Lactate Gluconate is primarily used in applications where solubility and clarity are important.

The conditions of series [2]: cited from earlier work; for % bioavailability of Ca out of inorganic Ca: consumption 1000 mg of product; for Bioavailability (in words): human and animal studies.
The conditions of series [3]: cited from earlier work.
A short description of a further series: Solubility in water. To be noted: RDA of calcium equals 800 mg per day in the EU.
The conditions of series [4]: cited from earlier work. This is another data set of the same source.
Another series deals with women. To be noted: over 4,000 women, calcium in drinking water; cited from earlier work.

We go through eight compounds from patent publication US20130273207A1, “Calcium Fortifying Composition for Strength, a Hydration Supplement, and Process for Preparing the Same” (priority 2010, published 2013).

Like-named read-outs stand apart in the source and are kept apart here.

In the case of `CC(O)C(=O)[O-].O=C([O-])[C@H](O)[C@@H](O)[C@H](O)[C@H](O)CO.[Ca+2]` [CLG, Calcium Lactate Gluconate], in series [1], the “Total Ca absorbed by the body (mg)” value was “Max”. Besides, in series [2], the “% bioavailability of Ca out of inorganic Ca” value (“% bioavailability” below) is recorded as “High*” and the “Bioavailability (in words)” value is “highly bioavailable”. Besides, the “Bioavailability (in words)” value in series [2] (listed as Ca lactate gluconate) was “Excellent bioavailability. (maintains that solubility during transit through the small intestine, during which time it is exposed to passive diffusion sites, therefore maximizing Ca absorption)”. For the same compound, in series [3], the “Solubility (in words)” value is “High solubility (the most soluble forms of organic Ca)”. Besides, in series [3] (water), the “Solubility [g Ca/L water]” value is reported as 52 g Ca/L water and the “Solubility [g/L water]” value is 400 g/L water. The “Solubility [g/L water]” value in series [3] (water, listed as Calcium Lactate Gluconate) is “approx. 400 g/L water”. For the same compound, the “% of RDA in 100 ml” value in the series “Solubility in water” amounted to 650%.

For the compound `[Cu]` [Copper], in series [4] (in vivo), the “Safe Intake level” value is listed as 10 mg and the safe upper limit result is listed as “limit of 10 mg/day in a 60 kg adult”.

For `CC(O)C(=O)[O-].CC(O)C(=O)[O-].[Ca+2]` (stereo not shown) [calcium lactate], the “Total Ca absorbed by the body” value in series [1] was found to be 122 mg. For the same compound, the “% bioavailability” value in series [2] is on record as 33%.

As to `[Ca+2]` [Calcium], the “total calcium absorbed from a mixed diet” value in series [2] (healthy adults, on an average) is listed as 10 to 30%. Besides, the bone density result in the series with women is listed as “associated with an increase in their bone density”. Besides, in series [4] (60 mg per liter), the “Validation: risk of toxicity (in words)” value was “No risk of toxicity”. In addition, the “Safe Intake level” value in series [4] (Source: Expert group of vitamins & Minerals, UK - 2003) is listed as 1500 mg. Further, the “doses that might induce some gastrointestinal side effects in some individuals” value in series [4] (human trials) is on record as “indicate that higher doses (of 2500 mg”. Moreover, in series [4] (in vivo), the “supplemental Ca with no adverse effect” value is recorded as 1500 mg per day.

In the case of `O=C([O-])[O-].[Ca+2]` [Ca Carbonate, calcium carbonate], the “Total Ca absorbed by the body” value in series [1] amounted to 40 mg. The “% bioavailability” value in series [2] is on record as 10%.

Take calcium phosphate [Ca Phosphate]: the “Total Ca absorbed by the body” value in series [1] is 39 mg. For the same compound, the “% bioavailability” value in series [2] is given as 10%.

As to `[Ca+2]` [Ionic Ca (Ca^++), Ionic Ca], in series [2], the “% bioavailability” value is listed as 100%.

On to `O=C([O-])CC(O)(CC(=O)[O-])C(=O)[O-].O=C([O-])CC(O)(CC(=O)[O-])C(=O)[O-].[Ca+2].[Ca+2].[Ca+2]` [Ca Citrate], for which the “% bioavailability” value in series [2] is on record as 50%.
